Source: patent publication US11377442B2, “Small molecule agonists and antagonists of NR2F6 activity” (ZANDER THERAPEUTICS, INC., priority 2016, dated 2022)
Read-outs that look alike come from different tables or passages of the source.

Tests used:
Assay type in all cases: cell-based
NR2F6 LBD = target: T1, NR2F6 LBD (Homo sapiens, UniProt P10588); assay: NR2F6 LBD transient transfection
T1 construct: expressed in transfected cells
T1 sequence (P10588 165-393 limits assumed): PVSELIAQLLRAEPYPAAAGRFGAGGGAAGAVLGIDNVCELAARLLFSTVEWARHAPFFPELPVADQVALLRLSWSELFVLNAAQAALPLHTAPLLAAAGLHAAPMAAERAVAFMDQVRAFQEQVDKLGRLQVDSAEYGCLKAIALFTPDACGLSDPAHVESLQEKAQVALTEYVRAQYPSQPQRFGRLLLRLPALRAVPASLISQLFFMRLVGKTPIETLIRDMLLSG
Summary of the method: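 LBD-transfected cells treated at 40, 10, 2 and 0.5 μM (4 replicates); cytotoxicity measured in parallel, normalized to DMSO (0%) and zero signal (100%). Higher concentrations excluded where signal loss reflected toxicity.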

NR2F6 = target: T2, NR2F6 (Homo sapiens, UniProt P10588); assay: NR2F6 agonist screening, Firefly signal cmpd/DMSO
T2 construct: expressed in transfected cells; also transient transfection
T2 sequence (P10588 1-404): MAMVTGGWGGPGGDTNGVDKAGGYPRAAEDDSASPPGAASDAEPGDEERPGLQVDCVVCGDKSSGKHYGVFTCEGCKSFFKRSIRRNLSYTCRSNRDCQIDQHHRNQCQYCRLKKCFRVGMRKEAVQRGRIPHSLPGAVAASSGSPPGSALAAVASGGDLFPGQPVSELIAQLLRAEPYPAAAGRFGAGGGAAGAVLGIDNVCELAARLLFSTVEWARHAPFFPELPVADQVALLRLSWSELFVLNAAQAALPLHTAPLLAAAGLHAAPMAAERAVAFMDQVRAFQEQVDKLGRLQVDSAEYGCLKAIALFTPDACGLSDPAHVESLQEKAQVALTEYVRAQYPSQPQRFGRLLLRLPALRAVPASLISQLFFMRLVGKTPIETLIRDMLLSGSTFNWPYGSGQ

Renilla [1] = assay: Renilla signal in NR2F6 agonist screening, cmpd/DMSO; details: Renilla
HEK293 pGL4 = assay: Firefly_pGL signal, cmpd/DMSO (pGL4 control cells); details: Homo sapiens
Renilla [2] = assay: Renilla signal, LBD, cmpd/DMSO (NR2F6 LBD transfected cells)
[3] = read-out: Renilla F4, cmpd/DMSO (mean)
[4] = F4, 1% FBS, read-out: Renilla, F4, 1% FBS, cmpd/DMSO (mean)
[5] = F4, 10% FBS, read-out: Renilla, F4, 10% FBS, cmpd/DMSO (mean)
[6] = HEK293, 0.5 uM, read-out: Firefly pGL4, cmpd/DMSO (mean)
[7] = HEK293, 2 uM, read-out: Firefly pGL4, cmpd/DMSO (mean)
[8] = HEK293, 10 uM, read-out: Firefly pGL4, cmpd/DMSO (mean)
[9] = HEK293, 40 uM, read-out: Firefly pGL4, cmpd/DMSO (mean)
[10] = HEK293, pGL4, 1% FBS, 0.5 uM, read-out: Firefly, pGL4, 1% FBS, cmpd/DMSO (mean)
[11] = HEK293, pGL4, 1% FBS, 2 uM, read-out: Firefly, pGL4, 1% FBS, cmpd/DMSO (mean)
[12] = HEK293, pGL4, 1% FBS, 10 uM, read-out: Firefly, pGL4, 1% FBS, cmpd/DMSO (mean)
[13] = HEK293, pGL4, 1% FBS, 40 uM, read-out: Firefly, pGL4, 1% FBS, cmpd/DMSO (mean)
[14] = HEK293, pGL4, 10% FBS, 0.5 uM, read-out: Firefly, pGL4, 10% FBS, cmpd/DMSO (mean)
[15] = HEK293, pGL4, 10% FBS, 2 uM, read-out: Firefly, pGL4, 10% FBS, cmpd/DMSO (mean)
[16] = HEK293, pGL4, 10% FBS, 10 uM, read-out: Firefly, pGL4, 10% FBS, cmpd/DMSO (mean)
[17] = HEK293, pGL4, 10% FBS, 40 uM, read-out: Firefly, pGL4, 10% FBS, cmpd/DMSO (mean)

O=S1(=O)C[C@H](NCc2ccco2)[C@@H](S(=O)(=O)c2cccs2)C1 [Compound D135]
Firefly LBD, cmpd/DMSO (mean) (NR2F6 LBD; 0.5 uM): 1.4
Firefly LBD, cmpd/DMSO (mean) (NR2F6 LBD; 2 uM): 1.7
Firefly LBD, cmpd/DMSO (mean) (NR2F6 LBD; 10 uM): 1.6
Firefly LBD, cmpd/DMSO (mean) (NR2F6 LBD; 40 uM): 2.8
Firefly F4, cmpd/DMSO (mean) (NR2F6; 0.5 uM): 1.7
Firefly F4, cmpd/DMSO (mean) (NR2F6; 2 uM): 2.4
Firefly F4, cmpd/DMSO (mean) (NR2F6; 10 uM): 1.9
Firefly F4, cmpd/DMSO (mean) (NR2F6; 40 uM): 2.8
F4, Firefly/Renilla for S/B(F4) > 3 (NR2F6; 1% FBS, 40 uM): 1.9
Firefly, F4/pGL4 for S/B(F4) > 3 (NR2F6; 1% FBS, 40 uM): 3.0
F4, Firefly/Renilla for S/B(F4) > 3 (NR2F6; 10% FBS, 40 uM): 1.9
Firefly, F4/pGL4 for S/B(F4) > 3 (NR2F6; 10% FBS, 40 uM): 2.3
Firefly, F4, 1% FBS, cmpd/DMSO (mean) (NR2F6; 1% FBS, 0.5 uM): 1.2
Firefly, F4, 1% FBS, cmpd/DMSO (mean) (NR2F6; 1% FBS, 2 uM): 1.6
Firefly, F4, 1% FBS, cmpd/DMSO (mean) (NR2F6; 1% FBS, 10 uM): 1.1
Firefly, F4, 1% FBS, cmpd/DMSO (mean) (NR2F6; 1% FBS, 40 uM): 3.3
Firefly, F4, 10% FBS, cmpd/DMSO (mean) (NR2F6; 10% FBS, 0.5 uM): 1.0
Firefly, F4, 10% FBS, cmpd/DMSO (mean) (NR2F6; 10% FBS, 2 uM): 0.7
Firefly, F4, 10% FBS, cmpd/DMSO (mean) (NR2F6; 10% FBS, 10 uM): 1.8
Firefly, F4, 10% FBS, cmpd/DMSO (mean) (NR2F6; 10% FBS, 40 uM): 3.7
fold induction at 0.5 µM (Renilla [1]; [3]): 0.9
fold induction at 2 µM (Renilla [1]; [3]): 1.2
fold induction at 10 µM (Renilla [1]; [3]): 1
fold induction at 40 µM (Renilla [1]; [3]): 1.3
fold induction at 0.5 µM (Renilla [1]; [4]): 1
fold induction at 2 µM (Renilla [1]; [4]): 1.3
fold induction at 10 µM (Renilla [1]; [4]): 1.2
fold induction at 40 µM (Renilla [1]; [4]): 1.7
fold induction at 0.5 µM (Renilla [1]; [5]): 1
fold induction at 2 µM (Renilla [1]; [5]): 1.1
fold induction at 10 µM (Renilla [1]; [5]): 1.1
fold induction at 40 µM (Renilla [1]; [5]): 1.9
fold induction at 0.5 µM (HEK293 pGL4; [6]): 1
fold induction at 2 µM (HEK293 pGL4; [7]): 1.6
fold induction at 10 µM (HEK293 pGL4; [8]): 1.4
fold induction at 40 µM (HEK293 pGL4; [9]): 1.3
fold induction at 0.5 µM (HEK293 pGL4; [10]): 1
fold induction at 2 µM (HEK293 pGL4; [11]): 1
fold induction at 10 µM (HEK293 pGL4; [12]): 0.8
fold induction at 40 µM (HEK293 pGL4; [13]): 1.1
fold induction at 0.5 µM (HEK293 pGL4; [14]): 0.9
fold induction at 2 µM (HEK293 pGL4; [15]): 1.1
fold induction at 10 µM (HEK293 pGL4; [16]): 1.7
fold induction at 40 µM (HEK293 pGL4; [17]): 1.6
Renilla LBD, cmpd/DMSO (mean) (Renilla [2]; 0.5 uM): 0.9
Renilla LBD, cmpd/DMSO (mean) (Renilla [2]; 2 uM): 0.9
Renilla LBD, cmpd/DMSO (mean) (Renilla [2]; 10 uM): 0.8
Renilla LBD, cmpd/DMSO (mean) (Renilla [2]; 40 uM): 0.9

O=S1(=O)C[C@H](NCC2CCCO2)[C@@H](S(=O)(=O)c2cccs2)C1 (stereo partly drawn) [Compound D134]
Firefly LBD, cmpd/DMSO (mean) (NR2F6 LBD; 0.5 uM): 1.5
Firefly LBD, cmpd/DMSO (mean) (NR2F6 LBD; 2 uM): 1.5
Firefly LBD, cmpd/DMSO (mean) (NR2F6 LBD; 10 uM): 1.9
Firefly LBD, cmpd/DMSO (mean) (NR2F6 LBD; 40 uM): 1.8
Firefly F4, cmpd/DMSO (mean) (NR2F6; 0.5 uM): 1.5
Firefly F4, cmpd/DMSO (mean) (NR2F6; 2 uM): 2.3
Firefly F4, cmpd/DMSO (mean) (NR2F6; 10 uM): 2.1
Firefly F4, cmpd/DMSO (mean) (NR2F6; 40 uM): 2.8
F4, Firefly/Renilla for S/B(F4) > 3 (NR2F6; 1% FBS, 40 uM): 2.6
Firefly, F4/pGL4 for S/B(F4) > 3 (NR2F6; 1% FBS, 40 uM): 4.0
F4, Firefly/Renilla for S/B(F4) > 3 (NR2F6; 10% FBS, 40 uM): 2.3
Firefly, F4/pGL4 for S/B(F4) > 3 (NR2F6; 10% FBS, 40 uM): 2.3
Firefly, F4, 1% FBS, cmpd/DMSO (mean) (NR2F6; 1% FBS, 0.5 uM): 1.0
Firefly, F4, 1% FBS, cmpd/DMSO (mean) (NR2F6; 1% FBS, 2 uM): 1.2
Firefly, F4, 1% FBS, cmpd/DMSO (mean) (NR2F6; 1% FBS, 10 uM): 2.0
Firefly, F4, 1% FBS, cmpd/DMSO (mean) (NR2F6; 1% FBS, 40 uM): 5.4
Firefly, F4, 10% FBS, cmpd/DMSO (mean) (NR2F6; 10% FBS, 0.5 uM): 1.1
Firefly, F4, 10% FBS, cmpd/DMSO (mean) (NR2F6; 10% FBS, 2 uM): 1.0
Firefly, F4, 10% FBS, cmpd/DMSO (mean) (NR2F6; 10% FBS, 10 uM): 2.1
Firefly, F4, 10% FBS, cmpd/DMSO (mean) (NR2F6; 10% FBS, 40 uM): 4.6
fold induction at 0.5 µM (Renilla [1]; [3]): 1.1
fold induction at 2 µM (Renilla [1]; [3]): 1.2
fold induction at 10 µM (Renilla [1]; [3]): 1.3
fold induction at 40 µM (Renilla [1]; [3]): 1.5
fold induction at 0.5 µM (Renilla [1]; [4]): 1
fold induction at 2 µM (Renilla [1]; [4]): 1.2
fold induction at 10 µM (Renilla [1]; [4]): 1.4
fold induction at 40 µM (Renilla [1]; [4]): 2.1
fold induction at 0.5 µM (Renilla [1]; [5]): 1
fold induction at 2 µM (Renilla [1]; [5]): 1
fold induction at 10 µM (Renilla [1]; [5]): 1.3
fold induction at 40 µM (Renilla [1]; [5]): 2
fold induction at 0.5 µM (HEK293 pGL4; [6]): 1
fold induction at 2 µM (HEK293 pGL4; [7]): 1.3
fold induction at 10 µM (HEK293 pGL4; [8]): 1.6
fold induction at 40 µM (HEK293 pGL4; [9]): 1.7
fold induction at 0.5 µM (HEK293 pGL4; [10]): 1
fold induction at 2 µM (HEK293 pGL4; [11]): 1.3
fold induction at 10 µM (HEK293 pGL4; [12]): 1.3
fold induction at 40 µM (HEK293 pGL4; [13]): 1.4
fold induction at 0.5 µM (HEK293 pGL4; [14]): 1.2
fold induction at 2 µM (HEK293 pGL4; [15]): 1.3
fold induction at 10 µM (HEK293 pGL4; [16]): 1.7
fold induction at 40 µM (HEK293 pGL4; [17]): 2
Renilla LBD, cmpd/DMSO (mean) (Renilla [2]; 0.5 uM): 0.9
Renilla LBD, cmpd/DMSO (mean) (Renilla [2]; 2 uM): 0.9
Renilla LBD, cmpd/DMSO (mean) (Renilla [2]; 10 uM): 1.0
Renilla LBD, cmpd/DMSO (mean) (Renilla [2]; 40 uM): 0.7
